Experimental data from publication PMC5590943, “Pharmacological characterisation of S 47445, a novel positive allosteric modulator of AMPA receptors” (PLoS ONE, 2017).

Experiments:
[1] = system: male OFA rats; assay: Novel object recognition test in rats; assay type: in vivo, rat; conditions: 3 administrations
Method: Novel object recognition and T-maze studies were conducted respectively in male OFA rats (150–175 g, Charles River, Saint-Germain-Nuelles, France) and male C57Bl/6 mice (5.5–6.5 month-old, Charles River, Saint-Germain-Nuelles, France). Animals were housed in collective cages with continuous access to tap water and food on a 12 h light-dark cycle, in a temperature-controlled (21 ± 1°C) and ventilated room. On completion of studies subjects were euthanized by either CO2 inhalation or intraperitoneal (i.p.) lethal pentobarbital injection. The novel object recognition test was used as the primary in vivo screening assay to identify AMPA-PAMs. The T-maze task was performed using a modified continuous performance procedure previously described in mice.
S 47445 was suspended either in distilled water with Tween80® 2% for oral administration or saline with Tween80® 2% for i.p. administration. Tween80® was obtained from Sigma-Aldrich, Lyon, France. S 47445 was synthetized by Servier, Suresnes, France. […]
The novel object recognition paradigm was developed by Ennaceur and Delacour, 1988 and aimed to evaluate potential procognitive effects of drugs on a form of recognition (episodic-like) memory in the rat. […] Consequently, recognition is measured by the time spent by rats in exploring two different objects, one being familiar and the other being new.
Animals were submitted to three phases of the test. […] Each rat was placed in the arena, and the time spent actively exploring the objects was recorded. […] After 24 h, during the third phase (session of recognition), each rat was again placed in the apparatus for 3 min in the presence of one of the familiar (Fam) objects and a new (New) object, and the time spent exploring both objects was again recorded. […] The difference in duration of exploration of the two objects (New-Fam) and the sum of duration of exploration on session of recognition were determined. Statistical analysis was performed on the discrimination index calculated as (New-Fam)/(Fam+New) using a one-way ANOVA using SAS v9.2 software (SAS Institute, Cary, NC). […]

[2] = target: human GluK2 kainate receptors (Homo sapiens, UniProt Q13002); assay: Glutamate-evoked current in oocytes expressing kainate receptors; conditions: up to 100 μM; n = 12
human GluK2 kainate receptors, sequence (Q13002 32-908): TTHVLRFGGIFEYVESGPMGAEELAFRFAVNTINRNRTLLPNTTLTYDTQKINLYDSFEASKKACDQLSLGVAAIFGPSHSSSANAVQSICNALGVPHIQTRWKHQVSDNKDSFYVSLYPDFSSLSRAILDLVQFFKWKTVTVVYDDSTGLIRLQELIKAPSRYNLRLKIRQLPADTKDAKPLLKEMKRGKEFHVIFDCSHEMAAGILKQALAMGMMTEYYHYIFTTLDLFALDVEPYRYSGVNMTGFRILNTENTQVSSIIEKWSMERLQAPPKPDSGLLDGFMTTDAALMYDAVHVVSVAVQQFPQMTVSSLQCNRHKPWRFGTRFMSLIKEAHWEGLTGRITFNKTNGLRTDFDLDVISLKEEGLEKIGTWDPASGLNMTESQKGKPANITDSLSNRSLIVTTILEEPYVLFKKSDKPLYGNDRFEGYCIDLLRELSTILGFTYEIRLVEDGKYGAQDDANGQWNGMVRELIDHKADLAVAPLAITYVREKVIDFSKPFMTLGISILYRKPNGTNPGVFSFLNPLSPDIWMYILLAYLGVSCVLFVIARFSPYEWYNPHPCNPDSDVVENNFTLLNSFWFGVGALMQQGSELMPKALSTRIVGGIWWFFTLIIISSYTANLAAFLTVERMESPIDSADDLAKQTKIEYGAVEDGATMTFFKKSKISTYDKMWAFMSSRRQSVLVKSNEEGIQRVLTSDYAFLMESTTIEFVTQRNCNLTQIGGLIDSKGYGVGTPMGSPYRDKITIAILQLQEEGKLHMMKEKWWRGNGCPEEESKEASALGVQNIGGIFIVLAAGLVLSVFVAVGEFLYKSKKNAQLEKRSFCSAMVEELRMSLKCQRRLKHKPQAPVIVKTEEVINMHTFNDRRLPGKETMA

[3] = system: PDE4 (h); assay: Enzyme and cell-based assay, [3H]cAMP + cAMP (1 μM)
[4] = system: I1; assay: Binding assay, [3H]clonidine (+ 10 μM RX821002)
[5] = system: NMDA receptors; assay: NMDA-evoked currents, oocytes injected with rat cortex poly(A+) mRNA; conditions: n = 3
[6] = target: A2A (h) (Homo sapiens, UniProt P29274); assay: Binding assay, [3H]CGS 21680
A2A (h), sequence (P29274 whole entry): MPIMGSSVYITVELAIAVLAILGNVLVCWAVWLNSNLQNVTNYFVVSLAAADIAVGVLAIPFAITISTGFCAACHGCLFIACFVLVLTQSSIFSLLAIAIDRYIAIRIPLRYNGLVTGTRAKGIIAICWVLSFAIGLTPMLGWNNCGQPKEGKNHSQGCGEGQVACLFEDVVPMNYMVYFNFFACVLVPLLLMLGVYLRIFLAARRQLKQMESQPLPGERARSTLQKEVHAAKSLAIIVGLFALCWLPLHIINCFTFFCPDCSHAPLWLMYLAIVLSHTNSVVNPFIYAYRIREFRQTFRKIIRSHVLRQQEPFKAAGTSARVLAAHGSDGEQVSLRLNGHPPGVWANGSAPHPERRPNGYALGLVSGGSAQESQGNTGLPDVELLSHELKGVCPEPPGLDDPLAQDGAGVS

[7] = target: AMPA/Kainate chimerae GluA1(K2S1) (Homo sapiens, UniProt P42261, A392I/A426D/A443L/A444R/A447S/A473Q/A536S/C542Y/D385S/D386Q/D417E/D470A/D533N/DEL395-402/E430Y/E441D/E457R/E501K/E538D/F388G/F429L/F545L/G479R/G484H/H449I/I446L/I458L/I518Y/I548L/INS382DPASGLNM/INS391N/INS555VIA/K448T/K472G/K519R/K523G/K525N/L422F/L456I/L497Y/M421L/M517L/N383T/N425S/N427K/P469D/Q405S/Q428P/Q522N/R455E/R467Q/R485K/S453T/S460E/S511T/S524T/T408S/T471N/T494A/V389K/V404L/V440I/V450L/V482I/V488L/V544L/V552C/Y381T/Y409L/Y435F/Y452F/Y483D/Y537P); assay: Glutamate-evoked current in oocytes expressing AMPA/Kainate chimera; conditions: n = 5
AMPA/Kainate chimerae GluA1(K2S1), sequence (P42261 with tags, fused parts or gaps with the stated changes): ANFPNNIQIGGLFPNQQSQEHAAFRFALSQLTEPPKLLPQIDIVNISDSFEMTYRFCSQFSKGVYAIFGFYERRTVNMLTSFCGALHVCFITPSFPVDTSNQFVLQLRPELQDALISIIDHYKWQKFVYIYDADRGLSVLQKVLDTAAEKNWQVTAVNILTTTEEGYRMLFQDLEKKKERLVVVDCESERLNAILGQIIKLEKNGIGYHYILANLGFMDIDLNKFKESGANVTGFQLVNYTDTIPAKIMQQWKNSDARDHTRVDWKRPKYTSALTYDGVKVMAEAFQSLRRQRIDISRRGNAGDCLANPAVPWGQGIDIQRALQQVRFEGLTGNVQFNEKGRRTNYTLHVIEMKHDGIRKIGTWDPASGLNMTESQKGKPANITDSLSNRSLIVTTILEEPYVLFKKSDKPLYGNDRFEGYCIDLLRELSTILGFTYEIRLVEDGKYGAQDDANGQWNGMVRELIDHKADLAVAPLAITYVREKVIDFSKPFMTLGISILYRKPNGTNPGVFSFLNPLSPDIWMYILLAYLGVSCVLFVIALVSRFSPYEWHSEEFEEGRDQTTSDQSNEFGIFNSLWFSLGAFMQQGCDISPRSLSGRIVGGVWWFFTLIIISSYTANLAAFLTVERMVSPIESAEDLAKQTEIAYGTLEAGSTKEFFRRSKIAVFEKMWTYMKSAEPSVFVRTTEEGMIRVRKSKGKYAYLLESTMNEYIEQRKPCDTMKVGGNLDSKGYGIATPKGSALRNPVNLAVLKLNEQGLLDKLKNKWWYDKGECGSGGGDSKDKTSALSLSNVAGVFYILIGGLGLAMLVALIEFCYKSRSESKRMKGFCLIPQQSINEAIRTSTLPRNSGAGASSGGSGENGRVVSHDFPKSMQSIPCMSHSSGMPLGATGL

[8] = system: Phospholipase C; assay: Enzyme and cell-based assay, [3H]PIP2 (0.3 mM)

SMILES: O=C1c2cc3nnn(CCc4cccc(F)c4)c(=O)c3cc2OCN1C1CC1 [S 47445, 8-cyclopropyl-3-[2-(3-fluorophenyl)ethyl]-7,8-dihydro-3H-[1,3]oxazino[6,5-g][1,2,3]benzotriazine-4,9-dione]
- Discrimination index versus vehicle ([1]; 0.3 mg/kg p.o., p ≤ 0.01): significantly increased the discrimination index
- Discrimination index versus vehicle ([1]; 1 mg/kg p.o., tendency of increase): did not reach statistical significance
- Discrimination index versus vehicle ([1]; 3 mg/kg p.o., p ≤ 0.05): significantly increased the discrimination index
- Effect on glutamate-evoked current [2]: did not modify glutamate-evoked current
- % Inhibition of control specific binding ([3]; S 47445 1.0E-05 M): -12%
- % Inhibition of control specific binding ([3]; S 47445 1.0E-07 M): 20%
- % Inhibition of control specific binding ([4]; S 47445 1.0E-05 M): 21%
- % Inhibition of control specific binding ([4]; S 47445 1.0E-07 M): 10%
- Effect at NMDA-evoked currents [5]: absence of effect
- % Inhibition of control specific binding ([6]; S 47445 1.0E-05 M): 9%
- % Inhibition of control specific binding ([6]; S 47445 1.0E-07 M): -8%
- Potentiating effect on glutamate-evoked current [7]: lost
- % Inhibition of control specific binding ([8]; S 47445 1.0E-05 M): 7%
- % Inhibition of control specific binding ([8]; S 47445 1.0E-07 M): -5%
